According to the NIST ThermoML archive (doi:10.1016/j.jct.2017.06.008):
± gives the expanded uncertainty stated by the source.

How the values were obtained:
[1] = refractive index (Na D-line) (dimensionless); xn = mol fraction of the nth substance listed; settings: 100 kPa, Liquid, Standard Abbe refractometry
[2] = xn = mol fraction of the nth substance listed; settings: 100 kPa, Liquid; for speed of sound: Frequency=3 MHz, Single path-length method; for mass density: Vibrating tube method

CC(=O)CC(C)C [4-methylpentan-2-one] + C1CCCCC1
Settings	mass density, 293.15 K [kg/m3]	mass density, 303.15 K [kg/m3]	mass density, 313.15 K [kg/m3]	refractive index, 293.15 K	refractive index, 303.15 K	refractive index, 313.15 K	speed of sound, 293.15 K [m/s]	speed of sound, 303.15 K [m/s]	speed of sound, 313.15 K [m/s]
[1], x1 = 0.0978	–	–	–	1.421 ± 0.005	1.416 ± 0.005	1.411 ± 0.005	–	–	–
[1], x1 = 0.1984	–	–	–	1.417 ± 0.005	1.412 ± 0.005	1.406 ± 0.005	–	–	–
[1], x1 = 0.3014	–	–	–	1.413 ± 0.005	1.408 ± 0.005	1.403 ± 0.005	–	–	–
[1], x1 = 0.4007	–	–	–	1.41 ± 0.005	1.405 ± 0.005	1.4 ± 0.005	–	–	–
[1], x1 = 0.5023	–	–	–	1.407 ± 0.005	1.402 ± 0.005	1.397 ± 0.005	–	–	–
[1], x1 = 0.6028	–	–	–	1.404 ± 0.005	1.399 ± 0.005	1.394 ± 0.005	–	–	–
[1], x1 = 0.7038	–	–	–	1.402 ± 0.005	1.397 ± 0.005	1.392 ± 0.005	–	–	–
[1], x1 = 0.8062	–	–	–	1.399 ± 0.005	1.395 ± 0.005	1.39 ± 0.005	–	–	–
[1], x1 = 0.9004	–	–	–	1.398 ± 0.005	1.393 ± 0.005	1.388 ± 0.005	–	–	–
[1], x1 = 1	–	–	–	1.396 ± 0.005	1.391 ± 0.005	1.387 ± 0.005	–	–	–
[2], x1 = 0.0978	778 ± 3	769 ± 3	759 ± 3	–	–	–	1260.7 ± 1.4	1212.6 ± 1.4	1165.6 ± 1.4
[2], x1 = 0.1984	780 ± 3	770 ± 3	760 ± 3	–	–	–	1246.9 ± 1.4	1200 ± 1.4	1154 ± 1.4
[2], x1 = 0.3014	781 ± 3	772 ± 3	762 ± 3	–	–	–	1236.2 ± 1.4	1190.3 ± 1.4	1145.3 ± 1.4
[2], x1 = 0.4007	783 ± 3	774 ± 3	764 ± 3	–	–	–	1228.8 ± 1.5	1183.5 ± 1.5	1139.2 ± 1.5
[2], x1 = 0.5023	786 ± 3	776 ± 3	767 ± 3	–	–	–	1222 ± 1.5	1178 ± 1.5	1134.6 ± 1.5
[2], x1 = 0.6028	788 ± 3	779 ± 3	770 ± 3	–	–	–	1217.4 ± 1.5	1174.2 ± 1.5	1131.6 ± 1.5
[2], x1 = 0.7038	791 ± 3	782 ± 3	773 ± 3	–	–	–	1214.2 ± 1.5	1171.8 ± 1.5	1129.9 ± 1.5
[2], x1 = 0.8062	794 ± 3	785 ± 3	776 ± 3	–	–	–	1212.1 ± 1.6	1170.4 ± 1.6	1129.2 ± 1.6
[2], x1 = 0.9004	797 ± 3	788 ± 3	779 ± 3	–	–	–	1211.3 ± 1.6	1170.2 ± 1.6	1129.6 ± 1.6
[2], x1 = 1	801 ± 3	792 ± 3	782 ± 3	–	–	–	1212.3 ± 1.6	1171.4 ± 1.6	1131.4 ± 1.6
